A value given as a limit tells only on which side of the number the result lay.

The target in one assay is Sphingosine 1-phosphate receptor 1 (Homo sapiens, UniProt P21453). The assay can be described thus: direct activation of human S1P1 – cell-based, agonist mode, 60K MLSMR set, dose response (AID 468).
Sequence of Sphingosine 1-phosphate receptor 1 (P21453 whole entry): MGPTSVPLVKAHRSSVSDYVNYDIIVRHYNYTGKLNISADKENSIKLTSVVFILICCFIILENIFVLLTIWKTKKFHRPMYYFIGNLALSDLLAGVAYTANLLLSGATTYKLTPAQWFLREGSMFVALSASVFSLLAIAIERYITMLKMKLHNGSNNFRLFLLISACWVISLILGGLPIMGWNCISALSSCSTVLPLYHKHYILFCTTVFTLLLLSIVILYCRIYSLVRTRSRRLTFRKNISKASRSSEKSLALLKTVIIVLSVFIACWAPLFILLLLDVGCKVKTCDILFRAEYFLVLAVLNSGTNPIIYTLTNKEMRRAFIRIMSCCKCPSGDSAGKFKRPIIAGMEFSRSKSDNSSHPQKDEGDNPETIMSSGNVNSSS
Settings: not given
Take `CCOc1ccc(-c2nc(-c3ccc(OC)cc3)no2)cc1OCC` [5-(3,4-Diethoxy-phenyl)-3-(4-methoxy-phenyl)-[1,2,4]oxadiazole]: the 50% effective concentration (EC50) was determined as 0.568 µM. Take `CCOc1ccc(-c2nc(-c3ccccc3)no2)cc1OCC` [5-(3,4-diethoxyphenyl)-3-phenyl-1,2,4-oxadiazole]: a half-maximal response (EC50) required 0.147 µM. In turn, `COc1ccc(-c2nc(-c3ccccc3OC)no2)cc1OC` [5-(3,4-dimethoxyphenyl)-3-(2-methoxyphenyl)-1,2,4-oxadiazole] gave an EC50 of 0.166 µM. Molecule `COc1ccc(-c2nc(-c3cccc(C)c3)no2)cc1OC` [5-(3,4-dimethoxyphenyl)-3-(3-methylphenyl)-1,2,4-oxadiazole] registered a half-maximal effective concentration (EC50) of 1.48 µM. In the case of `COc1ccc(-c2nc(-c3ccncc3)no2)cc1OC` [5-(3,4-dimethoxyphenyl)-3-(4-pyridyl)-1,2,4-oxadiazole], a half-maximal response (EC50) required 1.85 µM. The same measure, in the same setting: under `COc1ccccc1OCc1nc(C#N)c(N2CC(C)CC(C)C2)o1` (configuration not stated) [5-(3,5-dimethyl-1-piperidinyl)-2-[(2-methoxyphenoxy)methyl]-4-oxazolecarbonitrile] stands 4.02 µM; under `Cc1cc(C)cc(-c2nc(-c3ccncc3)no2)c1` [5-(3,5-dimethylphenyl)-3-(4-pyridyl)-1,2,4-oxadiazole], 2.05 µM; under `CCOc1ccc(C2CC(c3cccc(OC)c3OC)n3nnnc3N2)cc1Cl` (configuration not stated) [5-(3-chloranyl-4-ethoxy-phenyl)-7-(2,3-dimethoxyphenyl)-1,5,6,7-tetrahydro-[1,2,3,4]tetrazolo[1,5-a]pyrimidine], over 95 µM. `CC(C)N1C(=O)CCC1C(=O)N1CCC(Cc2ccccc2)CC1` (configuration not stated) [5-(4-benzylpiperidine-1-carbonyl)-1-isopropyl-2-pyrrolidone] displayed a concentration giving a half-maximal response (EC50) of over 95 µM. In turn, `COc1ccccc1-n1nnnc1S(=O)(=O)Cc1ccc(Cl)cc1` [5-(4-chlorobenzyl)sulfonyl-1-(2-methoxyphenyl)tetrazole] displayed a half-maximal effective concentration (EC50) of 3.61 µM. As to `CCc1ccc(-c2nc(-c3ccncc3)no2)cc1` [5-(4-ethylphenyl)-3-(4-pyridyl)-1,2,4-oxadiazole], it took 5.7 µM to reach a half-maximal effect (EC50).

For `O=C(Nc1ccccc1C(F)(F)F)c1cc(-c2ccc(O)cc2)on1` [5-(4-hydroxyphenyl)-N-[2-(trifluoromethyl)phenyl]isoxazole-3-carboxamide], the EC50 was 0.964 µM. The same measure, in the same setting: in the case of `c1ccc(-c2ccc(-c3nc(-c4cccnc4)no3)cc2)cc1` [5-(4-phenylphenyl)-3-(3-pyridinyl)-1,2,4-oxadiazole] it was 2.35 µM; in that of `O=C(Nc1nc2c(s1)CCCC2)c1cc2n(n1)C(C(F)(F)F)CC(C1CC1)N2` (configuration not stated) [5-Cyclopropyl-7-trifluoromethyl-4,5,6,7-tetrahydro-pyrazolo[1,5-a]pyrimidine-2-carboxylic acid (4,5,6,7-tetrahydro-benzothiazol-2-yl)-amide], 0.996 µM.

Turning to `CC(C)c1cc(C(F)(F)F)n2nc(C(=O)Nc3ccc4c(c3)OCO4)cc2n1` [5-Isopropyl-7-trifluoromethyl-pyrazolo[1,5-a]pyrimidine-2-carboxylic acid benzo[1,3]dioxol-5-ylamide], the EC50 amounted to 2.6 µM. In turn, `Cc1cc(N2CCN(C/C=C/c3ccccc3)CC2)n2ncnc2n1` [5-Methyl-7-[4-((E)-3-phenyl-allyl)-piperazin-1-yl]-[1,2,4]triazolo[1,5-a]pyrimidine] returned an EC50 of over 30 µM. Same read-out and setting: in the case of `CCC(NCCOc1ccc(Cl)cc1)=C1C(=O)N(C)C(=O)N(C)C1=O` [5-[1-[2-(4-chlorophenoxy)ethylamino]propylidene]-1,3-dimethyl-1,3-diazinane-2,4,6-trione] it was 5.04 µM; in that of `Cc1ccc(OCc2nc(-c3ccccc3)no2)c(C)c1` [5-[(2,4-dimethylphenoxy)methyl]-3-phenyl-1,2,4-oxadiazole], 2.66 µM; in that of `Clc1ccc(OCc2nc(-c3ccncc3)no2)c(Br)c1` [5-[(2-bromanyl-4-chloranyl-phenoxy)methyl]-3-pyridin-4-yl-1,2,4-oxadiazole], 3.86 µM.

Take `CC(C)c1ccc(OCc2nc(-c3ccccn3)no2)c(Br)c1` [5-[(2-bromanyl-4-propan-2-yl-phenoxy)methyl]-3-pyridin-2-yl-1,2,4-oxadiazole]: the EC50 was 4.45 µM. On the same count and under the same terms, in the case of `COC(=O)c1cc(NCc2ccccc2F)ccc1N1CCOCC1` [5-[(2-fluorobenzyl)amino]-2-morpholino-benzoic acid methyl ester] it was 8.9 µM. `COc1ccccc1-n1nnnc1SCc1cc2c(cc1Br)OCO2` [5-[(6-bromanyl-1,3-benzodioxol-5-yl)methylsulfanyl]-1-(2-methoxyphenyl)-1,2,3,4-tetrazole]: the EC50 was over 10 µM.

Turning to `COC(=O)c1cc(CSc2nnc(-c3ccccc3)c(-c3ccccc3)n2)oc1C` [5-[[(5,6-diphenyl-1,2,4-triazin-3-yl)thio]methyl]-2-methyl-3-furancarboxylic acid methyl ester], a half-maximal response (EC50) required 1.73 µM.

Molecule `O=C(Nc1ccc(N2CCCC2)c(Cl)c1)c1ccc(Br)o1` [5-bromanyl-N-(3-chloranyl-4-pyrrolidin-1-yl-phenyl)furan-2-carboxamide] came in with an EC50 of 4.15 µM. On the same count and under the same terms, under `O=S(=O)(NCc1ccncc1)c1ccc(Br)s1` [5-bromanyl-N-(pyridin-4-ylmethyl)thiophene-2-sulfonamide] stands 2.63 µM. Molecule `CCc1ccc(S(=O)(=O)NCCc2csc(-c3ccccc3)n2)s1` [5-ethyl-N-[2-(2-phenyl-1,3-thiazol-4-yl)ethyl]thiophene-2-sulfonamide] showed a concentration giving a half-maximal response (EC50) of 8.69 µM. `COC(=O)c1c(C)n(-c2ccc(OC)cc2)c2ccc(O)cc12` [5-hydroxy-1-(4-methoxyphenyl)-2-methyl-3-indolecarboxylic acid methyl ester] registered an EC50 of 6.29 µM. Still for that read-out and setting: under `Cc1ccc(S(=O)(=O)Nc2cccc3ncccc23)s1` [5-methyl-N-quinolin-5-ylthiophene-2-sulfonamide] stands 9.62 µM; under `Cn1nc(C(C)(C)C)cc1C(=O)NCc1ccc(N2CCCC2=O)cc1` [5-tert-Butyl-2-methyl-2H-pyrazole-3-carboxylic acid 4-(2-oxo-pyrrolidin-1-yl)-benzylamide], 3.86 µM; under `O=S1(=O)Nc2c(ccc3cccnc23)-c2ccccc21` [5H-quinolino[8,7-c][1,2]benzothiazine 6,6-dioxide], 3.95 µM. Take `COc1ccc(N2CCn3c2nc2c3c(=O)n(CCCc3ccccc3)c(=O)n2C)c(OC)c1` [6-(2,4-dimethoxyphenyl)-4-methyl-2-(3-phenylpropyl)-7,8-dihydropurin[7,8-a]imidazole-1,3-quinone]: a half-maximal effect (EC50) was put at 5.83 µM. The same measure, in the same setting: in the case of `Clc1ccccc1C1=Nn2c(nnc2-c2ccncc2)SC1` [6-(2-chlorophenyl)-3-(4-pyridyl)-7H-[1,2,4]triazolo[3,4-b][1,3,4]thiadiazine] it was 3.48 µM. `CCOC(=O)C1C(=O)C=C(c2ccc(OC)cc2)CC1c1ccco1` (configuration not stated) [6-(2-furanyl)-4-(4-methoxyphenyl)-2-oxo-1-cyclohex-3-enecarboxylic acid ethyl ester] gave an EC50 of 3.51 µM. `COc1ccc(-c2cn3c(C)c(C(=O)Nc4ccncc4)sc3n2)cc1` [6-(4-methoxyphenyl)-3-methyl-N-(4-pyridyl)imidazo[2,1-b]thiazole-2-carboxamide]: the EC50 was over 10 µM. Turning to `Cc1ccc(N2C(=O)c3cccc4c(N5CCN(C)CC5)ccc(c34)C2=O)c2cccnc12` [6-(4-methyl-1-piperazinyl)-2-(8-methyl-5-quinolinyl)-1H-benzo[de]isoquinoline-1,3(2H)-dione], the EC50 was over 30 µM.

Still in this assay, the particulars now being: inactive by the depositor's call.
Regarding `COc1ccccc1-c1cc(C(=O)Nc2cc(C)nn2-c2ccccc2)no1` [5-(2-methoxyphenyl)-N-(3-methyl-1-phenyl-1H-pyrazol-5-yl)isoxazole-3-carboxamide], the concentration giving a half-maximal response (EC50) is 47 µM. Still for that read-out and setting: under `COc1ccc(-c2nc(-c3cccc(C(F)(F)F)c3)no2)cc1OC` [5-(3,4-dimethoxyphenyl)-3-[3-(trifluoromethyl)phenyl]-1,2,4-oxadiazole] stands 22.3 µM; under `COc1cccc(-c2cc(C(=O)Nc3ccccc3SC)no2)c1` [5-(3-methoxyphenyl)-N-(2-methylsulfanylphenyl)-1,2-oxazole-3-carboxamide], 18 µM; under `c1ccc(-c2ccc(-c3nc(-c4ccncc4)no3)cc2)cc1` [5-(4-phenylphenyl)-3-(4-pyridyl)-1,2,4-oxadiazole], 10.4 µM. On to `Cc1cccc(-c2nc(C#N)c(NC3CCCCC3)o2)c1` [5-(cyclohexylamino)-2-(3-methylphenyl)-1,3-oxazole-4-carbonitrile], for which the half-maximal effective concentration (EC50) stood at 13.4 µM. Turning to `FC(F)(F)c1ccc(N2CCN(c3cc(-c4ccccc4)nc4ncnn34)CC2)nc1` [5-Phenyl-7-[4-(5-trifluoromethyl-pyridin-2-yl)-piperazin-1-yl]-[1,2,4]triazolo[1,5-a]pyrimidine], the 50% effective concentration (EC50) stood at 31.9 µM. `CCOC(=O)c1oc2ccc(S(=O)(=O)n3nc(-c4ccc(OC)cc4)cc3N)cc2c1C` [5-[5-amino-3-(4-methoxyphenyl)pyrazol-1-yl]sulfonyl-3-methyl-coumarilic acid ethyl ester] yielded a concentration for a half-maximal effect (EC50) of 30.4 µM. `Oc1c(C(c2ccco2)N2CCN(C(c3ccccc3)c3ccccc3)CC2)sc2ncnn12` (configuration not stated) [5-[(4-benzhydrylpiperazin-1-yl)-(furan-2-yl)methyl]-[1,3]thiazolo[3,2-b][1,2,4]triazol-6-ol] gave an EC50 of 15.9 µM. Consider `COC(=O)c1ccc(CSc2nc3ccccc3c(=O)n2Cc2ccco2)o1` [5-[[[3-(2-furanylmethyl)-4-oxo-2-quinazolinyl]thio]methyl]-2-furancarboxylic acid methyl ester], for which it took 18.8 µM to reach a half-maximal effect (EC50). Consider `Cc1nn(Cc2ccc(Cl)c(Cl)c2)c(C)c1NC(=O)c1cc(C2CC2)on1` [5-cyclopropyl-N-[1-(3,4-dichlorobenzyl)-3,5-dimethyl-pyrazol-4-yl]isoxazole-3-carboxamide], for which the EC50 was 10.6 µM. As for `O=C(Nc1ccc(Oc2ccccc2)cc1)c1cnc2n(c1=O)CCS2` [5-keto-N-(4-phenoxyphenyl)-2,3-dihydrothiazolo[3,2-a]pyrimidine-6-carboxamide], it took 16.6 µM to reach a half-maximal effect (EC50). Molecule `Cc1ccc(C(=O)Nc2nc(COc3ccccc3)cs2)s1` [5-methyl-N-[4-(phenoxymethyl)-1,3-thiazol-2-yl]thiophene-2-carboxamide] showed an EC50 of 12.1 µM.
